The assay has as its system excised human nerve tissue. The assay can be described thus: Phage display selection on excised human nerve tissue (Nerve2, Nerve3), NextGen sequence counts. The format is binding. The conditions noted are these: unique sequence count (relative enrichment); peptides overlapping between Nerve2 and Plated Nerve2. As to the method: Several m13 phage libraries were constructed expressing randomized variants of a parent peptide (QVPWEEPYYVVKKS-SGGL; SEQ ID NO: 576). In particular, the first 14 amino acids of the parent peptide were randomized using degenerate oligonucleotide synthesis to obtain a diverse set of peptides with a mutation rate of about 50% per residue.
To accomplish this, synthesis was carried out by the XXK codon design approach, where X is any base and K is G or T. To bias synthesis towards the parent sequence, synthesis was carried out at each X position with a mixture of about 70%-85% of the parent nucleotide and 15-30% of the remaining 3 nucleotides. The resulting molecules were inserted into fADL-1e (Antibody Design Laboratories), which is a type 3 phage display vector having a cloning site on the N-terminal side of the full-length gene III protein. The fusion proteins are directed to the periplasm by the PelB leader peptide, which is inserted in the vector […].
Collectively, the phage display libraries used in the screens comprised about 600 million peptides, with sequencing analysis confirming a mutation rate of about 50% per residue.
Phage libraries were independently processed, as follows, with five biological samples: two independent samples of excised human nerve tissue, one sample of a human nerve extract, and two independent samples of human muscle tissue, as follows:
Excised Human Nerve Tissue: For each of the two independent samples, phage were processed through multiple cycles of selection, with representative phage being isolated and sequenced after each selection cycle. Specifically, for selection using human nerve tissue, a sample of […] tissue (2 mm by 2 mm) was washed prior to mixing and incubation with a phage library. After incubation, the mixture (containing mostly intact nerves with phage particles that had variable affinity for nerves) was centrifuged and the nerve pellet washed multiple times with PBS to remove phage with little or no affinity for nerve tissue. The pellet was homogenized and plated for titering and reamplification. Phage that were bound at each round were sequenced. NextGen sequencing of pools after 2, 3 and 4 rounds of selection were used to isolate candidate sequences that were further analyzed using bioinformatics.
NextGen sequencing of pools after 2, 3 and 4 rounds of selection were used to isolate candidate sequences from each of the five samples. These five data sets were then analyzed as described in the next section.
Peptide and vector sequences were translated starting at the first start codon in the nucleotide sequence. […] Trimmed peptides with identical sequences were combined and quantified according to their frequency (count).
Following processing, an R script was written to merge the unique peptide sequences (with counts 6 or greater) from the 5 different data sets to analyze the overlap between nerve and muscle binding activity.
For the single Nerve2, Nerve3, and Plated Nerve2 (pn2) subsets, the number of counts for each group was set at a threshold giving rise to at least 100 peptides. […] As highlighted in yellow in FIG. 1B, the representative group also included 6 unique peptides overlapping between nerve2 and nerve3, 200 unique peptides overlapping between nerve2 and plated nerve2 (at least 60 counts), 4 unique peptides overlapping between nerve3 and plated nerve2. Finally, as highlighted in green in FIG. 1B, the representative group also included […] common to the nerve2, nerve3, and plated nerve2 sets.
135 (HGAWEETHYVVIQS) [compound 135] yielded a Count of 94.
Take 136 (HGRSVESYDLVNKR) [compound 136]: the Count is given as 94.
For 137 (QVTWGEPQYVVYKS) [compound 137], the Count is on record as 94.
Substance 138 (QLPSGEPYSFVKES) [compound 138] showed a Count of 93.
For 139 (DVPLEDTYYRVKKY) [compound 139] the value was 91; for 140 (HVPFDKSSHLVKKY) [compound 140], 90; for 141 (QFAWDSPYSRGKKT) [compound 141], 90.
Regarding 142 (HVTWQQTKYVTNRS) [compound 142], the Count is 89.
Consider 143 (RFPLEEPNYFQTKS) [compound 143], for which the Count came to 89.
For 144 (HVTWGKTYHLVTDS) [compound 144] the value was 88; for 145 (LVPWEEPGYFQNTS) [compound 145], 88; for 146 (QYPREEPRHALKMS) [compound 146], 88.
For 147 (NVTFEQSSYVVTSP) [compound 147] the value was 87.
The figure for 148 (YVTSESPYYVHGQP) [compound 148] is 87.
Regarding 149 (HVSGTKPYHLVKKS) [compound 149], the Count turned out to be 86.
150 (EDVLHNAYHVETQF) [compound 150] gave a Count of 85.
151 (QFAWEHRDYVLQRS) [compound 151]: the Count worked out at 85.
152 (QVLWEERLYVVKNS) [compound 152] returned a Count of 83.
The substance 153 (RSTWEQSYTIVKES) [compound 153] came in with a Count of 83.
Take 154 (QMASKEPNYPVKNS) [compound 154]: the Count stood at 82.
For 155 (QNPAEEQYIVWNNS) [compound 155] the value was 82; for 156 (SHPWEKQYDVFNNS) [compound 156], 81; for 157 (DVPWEEPYHVGNWR) [compound 157], 80.
On to 158 (HVASEQPYYGVNRP) [compound 158], for which the Count is given as 80.
159 (HVLGEEPYYFVQHV) [compound 159]: the Count is given as 80.
The substance 160 (QEPWDEFSYNVNAL) [compound 160] gave a Count of 80.
161 (QFRSGEAYVVVQTS) [compound 161] came in with a Count of 80.
162 (QNAFSKPYNGVKPS) [compound 162] came in with a Count of 80.
For 163 (QIESGEPYHDQKHP) [compound 163] the value was 79; for 164 (QVRWPEQYYVVNMG) [compound 164], 79.
The figure for 165 (QYAREEPYYFMSYK) [compound 165] is 79.
166 (QIPCQSDHNVVTNC) [compound 166] came in with a Count of 78.
As to 167 (DRLSDEPFKGMTHS) [compound 167], the Count stood at 77.
In the case of 168 (DVRWSDPHDRITKS) [compound 168], the Count came to 77.
The figure for 169 (HLPWEGPEYLGKKS) [compound 169] is 77.
For 170 (HVPRDEPQSFVHRS) [compound 170] the value was 77.
Take 171 (QFSSAEAYTVVNES) [compound 171]: the Count was 77.
The substance 172 (QIPSHSPYYALNSS) [compound 172] returned a Count of 77.
Take 173 (QQRLSASYQHVIKS) [compound 173]: the Count worked out at 77.
Turning to 174 (HFEGEDLYDRVKSR) [compound 174], the Count is listed as 76.
For 175 (HVTLEKPYDVATKS) [compound 175] the value was 76.
In turn, 176 (QLPGEHPYYPIKKP) [compound 176] yielded a Count of 76.
177 (EALWYKHYYGVHKT) [compound 177] returned a Count of 75.
For the substance 178 (HVVRHYPPHFVHKS) [compound 178], the Count stood at 75.
For the substance 179 (LIPSEERSYAVINT) [compound 179], the Count was found to be 75.
The figure for 180 (QHTHKQPFNVVKNY) [compound 180] is 75.
181 (VVPSQGTYHVGMTS) [compound 181] came in with a Count of 75.
Regarding 182 (AVAWERPYYVVNHS) [compound 182], the Count turned out to be 74.
The figure for 183 (DVLLARTYYFGEFP) [compound 183] is 74.
As for 184 (HFAGQEHLHFVEIS) [compound 184], the Count stood at 74.
In turn, 185 (LFAWAEANNVMKNS) [compound 185] had a Count of 74.
Substance 186 (SITNKQSVYVLKKS) [compound 186] gave a Count of 73.
Consider 187 (HVQSANPYYDVRNS) [compound 187], for which the Count is given as 72.
The figure for 188 (HVSFDEPYYYVKKS) [compound 188] is 72.
The figure for 189 (QDYWAKPSYIVKHS) [compound 189] is 72; for 190 (QISLTEATLVVRKS) [compound 190] it is 72.
For 191 (DVLWEEPRYFVNNS) [compound 191], the Count amounted to 71.
Consider 192 (HAHGQETYFLVKQS) [compound 192], for which the Count was determined as 71.
The figure for 193 (HFALQDPYQVFKKT) [compound 193] is 71.
For the substance 194 (QYPAERPTFDVTNA) [compound 194], the Count was 71.
The figure for 195 (SLPMEERYYAVRTA) [compound 195] is 71; for 196 (DVEWEEPYYFLEKS) [compound 196] it is 70.
As for 197 (DVTWEEPYYAVKNS) [compound 197], the Count stood at 69.
The figure for 198 (EHPRVESVYLFPHT) [compound 198] is 69; for 199 (HDSLDLHYYAMHES) [compound 199] it is 69; for 200 (QCPLEESCFDGQKS) [compound 200] it is 69.
For 201 (QLTWPKQNYTMTQS) [compound 201] the value was 69.
On to 202 (QLPWGAPYYVVKNS) [compound 202], for which the Count came to 68.
As for 203 (RLPSEEPYTVAKRP) [compound 203], the Count is on record as 68.
In turn, 204 (DFPWEQRSSTVKQY) [compound 204] yielded a Count of 67.
205 (DHTRVHPYYDFEIP) [compound 205] displayed a Count of 67.
For 206 (HATLQEPYFVVNHY) [compound 206] the value was 67.
The substance 207 (HDTWKGPYYPANKS) [compound 207] yielded a Count of 67.
In turn, 208 (QLPSQEPYNVQRKS) [compound 208] showed a Count of 67.
The figure for 209 (SVTRYDLSTDVTKS) [compound 209] is 67.
In the case of 210 (ESQWEQPSDVFKVV) [compound 210], the Count stood at 66.
For 211 (KLPLEEPFYIVTPS) [compound 211] the value was 66.
With 212 (QIRWEDASYVEKTS) [compound 212], the Count amounted to 66.
The figure for 213 (QVPWKGQYYVVASS) [compound 213] is 66.
In turn, 214 (HGPTDGPYYVSKKS) [compound 214] registered a Count of 65.
On to 215 (HILRQEPYYVLTNY) [compound 215], for which the Count was determined as 65.
216 (HSHGQELFYVVTNT) [compound 216] had a Count of 65.
217 (HVPWGEPEALVKKS) [compound 217] yielded a Count of 65.
With 218 (QPPREQPYHIMKNS) [compound 218], the Count was found to be 65.
As to 219 (QTSWAGPHDRVTKA) [compound 219], the Count is on record as 65.
220 (QVPCEEPWCLVKVN) [compound 220] displayed a Count of 65.
As for 221 (QVPWQDPVYDVNNA) [compound 221], the Count is 65.
For 222 (YVKTVNPDSVLKIS) [compound 222] the value was 65; for 223 (HVHFTDPHYVMKKS) [compound 223], 64.

The values above are taken from patent publication US20240207422A1, “NERVE TARGETING PEPTIDE CONJUGATES AND METHODS OF USE” (Alume Biosciences, Inc., priority 2022, published 2024).
